Where two headings read alike, the source gives them in different places.

Series [1] relates to mouse bone marrow leukocyte precursors. In words: Viability of the stimulated BM precursor cultures. Details: Viability, % of Viable cells: reference not given here. Type of series: cell-based, BALB/c mice. As to the method: (§1) The fine suspension obtained above was transferred into a 50 ml sterile centrifuge tube and centrifuged for 10 minutes at 1200 rpm. […] The pellets were washed using HBSS wash buffer and then centrifuged again for 10 minutes at 1200 rpm. This process was repeated for one more time. […] This suspension was then finally passed through a MACS (Magnetic Activated Cell Sorting) column to get essentially and predominately leukocyte precursors.

The test system is the same in series [2]. In words: Differentiation of dendritic cells from bone marrow leukocyte precursors, flow cytometry of cell surface markers. Type of series: cell-based, BALB/c mice. On the procedure:
as §1
In order to evaluate the upregulation of various cell surface markers associated with Dendritic cells, flow cytometry on the cells stimulated with GM-CSF or the compound was carried out using fluorescent labeled antibodies to various molecules (CD11c, I-A^d, CD80, CD86, H2-D^d, CD54, CD40).
The hind limbs of the mouse were removed carefully and placed in a Petri dish with HBSS (Hanks Balanced Saline Solution) wash buffer. The tibias and femurs were cleared of all surrounding and attached tissues. This was followed by chipping the ends of bones. The bone marrow was flushed out by injecting HBSS solution into the bone with the help of a hypodermal syringe (No. 26 gauge). The bone marrow was finally made into a fine suspension by syringing in and out of the fluid several times using an 18 gauge syringe needle.
A general note: A flow cytometer gives signals particle by particle.

A further series has as its system osteoclast precursors. In words: In vitro osteoclastogenesis assay (M-CSF + RANKL, TRAP staining). The series is classed as cell-based, Balb/c mice. The conditions noted are these: for Effect on RANKL-induced osteoclast differentiation / formation (in words): M-CSF and RANKL, TRAP-positive osteoclasts; for % inhibition of osteoclast formation / Number of TRAP-positive multinuclear cells/well of 96 well plate (Mean ± SEM): 6 days. From the text: For in vitro osteoclastogenesis bone marrow cells were isolated from 5- to 8-wk-old Balb/c mice. Mice were sacrificed by cervical dislocation and femora and tibiae were aseptically removed and dissected free of adherent soft tissues. The bone ends were cut, and the marrow cavity was flushed out with medium MEM from one end of the bone using a sterile 21-gauge needle. The bone marrow suspension was carefully agitated with a plastic Pasteur pipette to obtain a single-cell suspension. The cells were washed twice and resuspended (10^6 cells/ml) in αMEM containing 10% FBS. […] After 24 h, nonadherent cells were harvested and layered on a Ficoll-Hypaque gradient. Cells at the gradient interface were collected, washed and resuspended (5×10^5/ml) in αMEM containing 10% FBS. In this study, we called these stromal cell-free, M-CSF-dependent, nonadherent cells as osteoclast precursors. These osteoclast precursors were added to 96-well plates (100 μl/well) containing plastic coverslips. Each well received further 100 μl of medium containing M-CSF (30 ng/ml), RANKL (30 ng/ml) without or with various concentrations of purified compound. Cultures were fed every 2-3 days and after incubation for 6 days osteoclast formation was evaluated by tartrate-resistant acid phosphatase (TRAP) staining. The number of TRAP-positive multinucleated cells (MNCs) containing 3 or more nuclei was scored.
TRAP is preferentially expressed at high levels in osteoclast and is considered, especially in the mouse, to be an osteoclast marker. Cytochemical staining for TRAP is widely used for identifying the osteoclasts in vivo and in vitro. It is claimed to be specific for osteoclasts in bone. After incubation, cells on cover slips were washed in PBS, fixed in 10% formalin for 10 min and stained for acid phosphatase in the presence of 0.05 M sodium tartrate. The substrate used was napthol AS-BI phosphate. Only those cells that were strongly TRAP-positive (dark red) counted by light microscopy.

The mark [3] stands for this setting: Table A, 15 ng/ml of GM-CSF or 50 micro gram per ml of the synthetic compound, 48 h.
Where [4] appears, read: Table B (Examples 6-8), concentration not given.
Setting [5] is: M-CSF + RANKL + compound 0.5 μg/ml.
Where [6] appears, read: M-CSF + RANKL + compound 1.5 μg/ml.
[7] abbreviates: M-CSF + RANKL + compound 3.0 μg/ml.
Where [8] appears, read: M-CSF + RANKL + compound 5.0 μg/ml.

Consider “GM-CSF: Granulocyte Macrophage-Colony Stimulating Factor, growth factor conventionally used to generate DCs in vitro; comparison”, for which, in series [1] (setting [3]), the “Viability, % of Viable cells” value is listed as 180%. In addition, the “Viability, % of Viable cells” value in series [1] (setting [4]) is listed as 180%. Further, in series [2] (setting [3]), the “Fold increase in Relative MFI over unstimulated control, surface marker CD11c” value was determined as 5.0 fold; the “Fold increase in Relative MFI over unstimulated control, surface marker CD54” value is 4.0 fold; the “Fold increase in Relative MFI over unstimulated control, surface marker CD80” value is 3.3 fold; the “Fold increase in Relative MFI over unstimulated control, surface marker H-2D^d” value came out at 2.0 fold. Besides, in series [2] (setting [4]), the “Fold increase in Relative MFI over unstimulated control, surface marker CD11c” value came out at 5.0 fold; the “Fold increase in Relative MFI over unstimulated control, surface marker CD54” value was determined as 4.0 fold; the “Fold increase in Relative MFI over unstimulated control, surface marker CD80” value is reported as 3.3 fold; the “Fold increase in Relative MFI over unstimulated control, surface marker H-2D^d” value was determined as 2.0 fold.

On to `O=C(O)C[C@H](NS(=O)(=O)O)C(=O)O` [example 3, L-aspartyl, N-sulfonic acid], for which, in the series on osteoclast precursors, the “Effect on RANKL-induced osteoclast differentiation / formation (in words)” value is “significantly inhibited osteoclast formation”.

Regarding `O=C([O-])CCC[C@H](NS(=O)(=O)[O-])C(=O)[O-].O=C([O-])CCC[C@H](NS(=O)(=O)[O-])C(=O)[O-].[Ca+2].[Ca+2].[Ca+2]` [L-homoglutamic acid, N-sulphonic acid, calcium salt], the “% inhibition of osteoclast formation” value in the series with osteoclast precursors (setting [5]) stood at 5.55%; in the series with osteoclast precursors (setting [6]) it was 27.60%; with osteoclast precursors (setting [7]), 46.40%; in the series on osteoclast precursors (setting [8]), 68.50%. Further, the “Number of TRAP-positive multinuclear cells/well of 96 well plate (Mean ± SEM)” value in the series on osteoclast precursors (setting [5]) turned out to be 138.57 ± 7.95 cells/well; in the series with osteoclast precursors (setting [6]), 106.23 ± 10.47 cells/well; in the series on osteoclast precursors (setting [7]) it was 78.57 ± 13.57 cells/well; in the series with osteoclast precursors (setting [8]) it was 46.22 ± 10.00 cells/well.

As to `O=C([O-])CC[C@H](NS(=O)(=O)[O-])C(=O)[O-].O=C([O-])CC[C@H](NS(=O)(=O)[O-])C(=O)[O-].[Ca+2].[Ca+2].[Ca+2]` [compound 1, L-glutamyl-N-sulphonic acid, Ca salt], the “Viability of the cultures at the end of the incubation period” value was “more than 99%” in series [1] (200 mM of the synthetic compound, 48 h (embodiment text)) and above 99% in series [1] (50 micro gram per ml of the synthetic compound, 48 h). In addition, in series [1] (setting [3]), the “Viability, % of Viable cells” value stood at 150%. For the same compound, in the series on osteoclast precursors, the “Effect on RANKL-induced osteoclast differentiation / formation (in words)” value is given as “dose dependent inhibition in the number of osteoclast cells generated”. For the same compound, the “Induction of differentiation of dendritic cells from BM precursors (in words)” value is on record as “Induces Differentiation of Dendritic Cells” in series [2] and “induces the differentiation of DCs from BM precursors” in series [2] (listed as the compound). In series [2] (incubation of BM leukocyte precursors with different concentrations), the “Concentration of maximum up regulation of cell surface densities of CD11c, CD80, CD54” value was 200 mM.

The record behind these values is patent publication US20050085547A1, “Molecules for inducing differentiation of dendritic cells” (Council of Scientific & Industrial Research, priority 2003, published 2005).
